Columns and labels:
Assay type in all cases: cell-based
[1] = test system: Paenibacillus larvae subsp. larvae; assay: Disk diffusion test (Kirby-Bauer), zone of inhibition; settings: 6 mm paper disc containing 5 μg of tylosin
Procedure: (§1) Allicin (Allisure™ Liquid) was tested against bacterial and fungal pathogens using a standard disk diffusion method (per Norrell & Messley). The aliquots of bacterial or fungal spores (100 μl of approximately 10^8-10^9 spores/ml) were plated on Mueller-Hinton agar medium, 4.0 mm depth. The 6 mm paper discs containing 250 μg of allicin or 5 μg of tylosin (positive control) were placed in the center of each plate. Plates were incubated at 33° C. and 6% CO2 and a zone of inhibition was measured 24 h, 48 h or 76 h post inoculation depending on the microbial species. All experiments were replicated at least three times.

Ascosphaera apis = assay: as above; settings: 6 mm paper disc containing 5 μg of tylosin
Procedure: as §1

Ascosphaera aggregata = assay: as above; settings: 6 mm paper disc containing 5 μg of tylosin
Procedure: as §1

[2] = test system: Paenibacillus larvae subsp. pulvifaciens; assay: as above; settings: 6 mm paper disc containing 5 μg of tylosin
Procedure: as §1

[3] = test system: Paenibacillus larvae subsp. larvae; assay: MIC by broth microdilution, bee pathogens; settings: range 1000 ppm to 0.25 ppm
From the text: (§2) We tested allicia (Allisure™ Liquid) activity against several species of entomopathogenic bacteria (Paenibacillus larvae subsp. larvae, Paenibacillus larvae subsp. pulvifaciens) and fungi (Ascosphaera apis and Ascosphaera aggregata) using broth microdilution method to determine minimum inhibitory concentration (MIC) and the agar diffusion test (Kirby-Bauer) to determine zone of inhibition. Bacterial spores were isolated from the diseased honey bee larval samples. A small aliquot of heat-treated bacterial spores was suspended in 100 μl of phosphate buffered saline-pH 7.2 (PBS) and plated on semi-selective J. Agar medium, containing Nalidixic and Pipemidic acid (Alippi, A M (1995) Detection of Bacillus larvae spores in Argentinian honeys by using a semi-selective medium. Microbiologia 1995 11(3): 343-50; and Govan, V A; Allsopp, M H; Davison, S A (1999) PCR Detection Method for Rapid Identification of Paenibacillus larvae. Applied and Environmental Microbiology 65(5): 2243-2245.
(§3) The plates were incubated at 33° C. in air containing 6% CO2 and 95% RH. The initial species identification was based on morphological, biological and cultural characteristics. The bacterial culture was tested for a catalase reaction (Leboffe, M. J and Pierce, B e (1999) A photographic atlas for the microbiology laboratory. Morton Publishing Company. 254 pp). The bacterial colonies were characterized by shape, margins and color. Gram-positive stained smears (Gram-stain Reagents Kit, EMD Chemicals Inc., NJ) were examined for morphological identification of vegetative cells and spores.
(§4) DNA based PCR identification was performed to corroborate identification of the bacterial species. Bacterial cells from culture plates were added directly to 30 μl of PCR reaction. The PCR primers used in the reaction were based on the 16S RNA sequence to selectively amplify a fragment of 973 by unique to P. larvae (Govan et al., 1999). The PCR products were visualized by 0.8% agarose gel electrophoresis in TAE buffer and ethidium bromide staining. The reference strains of bacteria were used as a control in PCR reactions and were provided by the National Center for Agricultural Research, Peoria, Ill. P. l. larvae (NRRL B-3560, B-2605) and P. l. palvifaciens (NRRL B-3688, B-3685, B-3689, NRS-1687, P. alvei B383).
(§5) Positive controls contained the antibiotic Tylosin (Tylan® 50, Elanco Animal Health Inc., IN) and negative controls contained no antibiotics. […] The optical densities of cultures (OD 600) were recorded 24 h and 48 h post inoculation, depending on the growth rate of the microbial species. […] Minimum bactericidal concentration values (NBC) were determined for allicin by plating out 100 μl of bacterial cultures derived from the MIC assay. […]

[4] = test system: Paenibacillus larvae subsp. pulvifaciens; assay: MIC by broth microdilution, bee pathogens; settings: range 1000 ppm to 0.25 ppm
From the text: as §2, §3, §4, §5

## CC[C@H]1OC(=O)C[C@@H](O)[C@H](C)[C@@H](O[C@@H]2O[C@H](C)[C@@H](O[C@H]3C[C@@](C)(O)[C@@H](O)[C@H](C)O3)[C@H](N(C)C)[C@H]2O)[C@@H](CC=O)C[C@@H](C)C(=O)/C=C/C(C)=C/[C@@H]1CO[C@@H]1O[C@H](C)[C@@H](O)[C@@H](OC)[C@H]1OC [tylosin, reference compound]
[1]
  growth inhibition in agar diffusion test: completely inhibited
Ascosphaera apis
  zone of inhibition: 0.0 mm
Ascosphaera aggregata
  zone of inhibition: 0.0 mm
[2]
  zone of inhibition: 14-16 mm
[3]
  MIC: < 0.25 µg/mL
[4]
  MIC: < 0.25 µg/mL
